Reference: patent US20220380338A1, “CYCLOALKYL 3-OXOPIPERAZINE CARBOXAMIDES AND CYCLOHETEROALKYL 3-OXOPIPERAZINE CARBOXAMIDES AS NAV1.8 INHIBITORS” (Merck Sharp & Dohme LLC, priority 2021, published 2022)

Target: T1, human NaV1.8 (Homo sapiens, UniProt Q9Y5Y9)
T1 construct: expressed in transfected cells
Experiment: Nav1.8 Qube® Assay (automated 384-well patch-clamp, inhibition of sodium current)
Assay type: cell-based
Details: human NaV1.8 channels stably expressed in HEK 293 cells, room temperature
Experimental: Compounds were tested on human NaV1.8 and NaV1.5 channels stably expressed in human embryo kidney (HEK) 293 cells. Sodium current measurements on Qube® were conducted as follows: automated 384-well patch-clamp assays on the Qube® platform (Sophion Biosciences) were used to measure the inhibition of sodium flow through human NaV1.8 and NaV1.5 channels. Whole-cell voltage-clamp recordings were performed in QChips® (Sophion Biosciences) at room temperature. NaV1.8 current measurements on Qube® were obtained as follows: NaV1.8 currents were elicited with a 10 second 1 Hertz (Hz) pulse train from a holding potential of −90 millivolts (mV), delivered to the cells once per minute in the control condition (DMSO only) and after compound addition. The 1 hertz pulse train stimulation consisted of ten test pulses to 10 millivolt (mV) for 20 milliseconds (ms), each of which was followed by a 980 millisecond repolarization to −67 millivolts. At the end of the 10 second pulse train stimulation, a 5 second hyperpolarization step to −100 millivolt (mV) was used to recover NaV1.8 from fast inactivation. The peak currents elicited by the 1st and 10th test pulses were used to determine IC50 values for resting inhibition and inactivated state inhibition. NaV1.5 current measurements on Qube® were obtained as follows: NaV1.5 currents were elicited with a 20 second 3 Hertz pulse train in the control condition (DMSO only) and after compound addition. The pulse train consisted of sixty 20 millisecond test pulses to 0 millivolt from a holding potential of −80 millivolt (mV). The average peak currents elicited by the last 3 test pulses were used to determine IC50 values for NaV1.5 inhibition.
The following buffers were used for the Qube® recordings: External buffer for NaV1.8 Qube® recording: 150 NaCl, 2 CaCl2, 5 KCl, 1 Mg Cl2, 10 HEPES, 12 Dextrose; External buffer for Qube® NaV1.5 recording: 120 N-Methyl-D-Glucamine, 40 NaCl, 1 KCl, 2.7 CaCl2, 5 HEPES, 0.5 MgCl2; and Internal buffer for Qube® recording: 120 CsF, 30 CsCl, 10 EGTA, 5 HEPES, 5 NaF, 2 MgCl2.
For all Qube® experiments offline analysis was used to determine percent inhibition as a function of drug concentration. IC50 values were determined by fitting to the Hill equation.

T1 sequence (Q9Y5Y9 whole entry): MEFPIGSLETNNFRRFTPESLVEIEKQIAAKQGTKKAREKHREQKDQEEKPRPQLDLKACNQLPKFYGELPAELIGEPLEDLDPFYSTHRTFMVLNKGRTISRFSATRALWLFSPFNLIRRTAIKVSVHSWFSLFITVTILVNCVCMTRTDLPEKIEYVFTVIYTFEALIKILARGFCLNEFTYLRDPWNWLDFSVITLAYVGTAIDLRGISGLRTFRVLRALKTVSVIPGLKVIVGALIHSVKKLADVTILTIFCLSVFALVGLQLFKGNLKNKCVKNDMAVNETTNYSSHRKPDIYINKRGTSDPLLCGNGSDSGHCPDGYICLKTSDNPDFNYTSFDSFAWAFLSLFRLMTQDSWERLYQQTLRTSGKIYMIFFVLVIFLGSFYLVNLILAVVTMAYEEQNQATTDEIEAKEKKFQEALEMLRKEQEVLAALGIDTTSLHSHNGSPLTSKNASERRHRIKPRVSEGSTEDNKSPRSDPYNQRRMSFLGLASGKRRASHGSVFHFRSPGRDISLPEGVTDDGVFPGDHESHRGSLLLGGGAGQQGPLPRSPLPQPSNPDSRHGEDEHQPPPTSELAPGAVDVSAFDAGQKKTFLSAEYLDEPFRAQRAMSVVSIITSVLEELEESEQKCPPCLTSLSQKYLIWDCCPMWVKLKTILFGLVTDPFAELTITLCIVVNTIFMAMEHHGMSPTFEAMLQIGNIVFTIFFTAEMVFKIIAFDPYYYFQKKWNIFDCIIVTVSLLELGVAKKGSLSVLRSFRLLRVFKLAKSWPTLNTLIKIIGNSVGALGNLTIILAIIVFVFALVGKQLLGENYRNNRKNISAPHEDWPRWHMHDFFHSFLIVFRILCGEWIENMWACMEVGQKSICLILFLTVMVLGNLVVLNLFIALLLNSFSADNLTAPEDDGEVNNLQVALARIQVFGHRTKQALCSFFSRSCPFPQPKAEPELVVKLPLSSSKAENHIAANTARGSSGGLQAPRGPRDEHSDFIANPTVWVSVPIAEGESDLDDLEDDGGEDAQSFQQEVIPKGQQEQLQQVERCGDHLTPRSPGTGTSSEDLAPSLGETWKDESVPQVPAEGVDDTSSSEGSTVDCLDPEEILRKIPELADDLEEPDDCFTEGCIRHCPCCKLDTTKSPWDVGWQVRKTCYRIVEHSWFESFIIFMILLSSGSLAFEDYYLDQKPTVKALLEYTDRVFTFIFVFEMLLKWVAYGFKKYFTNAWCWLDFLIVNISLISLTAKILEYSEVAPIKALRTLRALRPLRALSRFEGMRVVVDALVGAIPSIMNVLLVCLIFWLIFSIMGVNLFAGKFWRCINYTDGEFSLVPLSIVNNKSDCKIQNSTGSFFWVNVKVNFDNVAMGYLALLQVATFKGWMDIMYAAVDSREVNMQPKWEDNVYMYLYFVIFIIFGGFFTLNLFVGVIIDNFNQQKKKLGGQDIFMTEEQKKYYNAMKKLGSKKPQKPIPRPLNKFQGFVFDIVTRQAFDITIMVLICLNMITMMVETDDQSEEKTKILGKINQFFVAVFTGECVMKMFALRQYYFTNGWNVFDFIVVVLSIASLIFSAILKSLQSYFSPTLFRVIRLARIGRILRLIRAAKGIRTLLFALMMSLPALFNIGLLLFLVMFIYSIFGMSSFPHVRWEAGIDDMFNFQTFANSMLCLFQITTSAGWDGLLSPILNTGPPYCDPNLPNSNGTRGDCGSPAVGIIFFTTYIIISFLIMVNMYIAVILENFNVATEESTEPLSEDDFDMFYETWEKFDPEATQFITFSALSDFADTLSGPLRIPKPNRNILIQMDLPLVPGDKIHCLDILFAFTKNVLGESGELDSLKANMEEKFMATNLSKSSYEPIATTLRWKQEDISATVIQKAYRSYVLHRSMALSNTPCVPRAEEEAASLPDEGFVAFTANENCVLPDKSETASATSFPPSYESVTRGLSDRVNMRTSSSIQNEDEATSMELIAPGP

Row | Compound | IC50 [nM]
1 | O=C1CN(C(=O)N[C@H](c2ccc(F)c(Cl)c2)C2CCC(C(F)(F)F)CC2)CCN1 (single isomer, unassigned) [Example 1A] | 3.5
2 | O=C1CN(C(=O)N[C@H](c2ccc(F)c(Cl)c2)C2CCC(C(F)(F)F)CC2)CCN1 (single isomer, unassigned) [Example 1B] | 183
3 | O=C1CN(C(=O)NC(c2ccc(F)c(Cl)c2)C2CC3CCC(C2)C3(F)F)CCN1 (single isomer, unassigned) [Example 2A, N-((R or S)-(3-chloro-4-fluoro-phenyl)(8,8-difluoro-bicyclo[3.2.1]octan-3-yl)methyl)-3-oxopiperazine-1-carboxamide] | 65.5
4 | O=C1CN(C(=O)NC(c2ccc(F)c(Cl)c2)C2CC3CCC(C2)C3(F)F)CCN1 (single isomer, unassigned) [Example 2B, N-((S or R)-(3-chloro-4-fluoro-phenyl)(8,8-difluroo-bicyclo[3.2.1]octan-3-yl)methyl)-3-oxopiperazine-1-carboxamide] | 410
5 | C[C@@H]1C(=O)NCCN1C(=O)NC(c1ccc(F)c(Cl)c1)C1CC2CCC(C1)C2(F)F (single isomer, unassigned) [Example 3A, (2R)-N-((R or S)-(3-chloro-4-fluoro-phenyl)(8,8-difluoro-bicyclo[3.2.1]octan-3-yl)methyl)-2-methyl-3-oxo-piperazine-1-carboxamide] | 14.8
6 | C[C@@H]1C(=O)NCCN1C(=O)NC(c1ccc(F)c(Cl)c1)C1CC2CCC(C1)C2(F)F (single isomer, unassigned) [Example 3B, (2R)-N-((S or R)-(3-chloro-4-fluoro-phenyl)(8,8-difluoro-bicyclo[3.2.1]octan-3-yl)methyl)-2-methyl-3-oxo-piperazine-1-carboxamide] | 148
7 | O=C1CN(C(=O)N[C@H](c2ccc(Cl)cc2)C2CCC(C(F)(F)F)CC2)CCN1 (single isomer, unassigned) [Example 4A, N-((R or S)-(4-chlorophenyl)(trans-4-(trifluoromethyl)-cyclohexyl)methyl)-3-oxopiperazine-1-carboxamide] | 89.3
8 | O=C1CN(C(=O)N[C@H](c2ccc(Cl)cc2)C2CCC(C(F)(F)F)CC2)CCN1 (single isomer, unassigned) [Example 4B, N-((S or R)-(4-chlorophenyl)(trans-4-(trifluoromethyl)-cyclohexyl)methyl)-3-oxopiperazine-1-carboxamide] | 288
9 | C[C@@H]1C(=O)NCCN1C(=O)N[C@H](c1ccc(F)c(Cl)c1)C1CCC(C(F)(F)F)CC1 (single isomer, unassigned) [Example 5A, (2R)-N-((R or S)-(3-chloro-4-fluoro-phenyl)(trans-4-(trifluoromethyl)cyclo-hexyl)methyl)-2-methyl-3-oxo-piperazine-1-carboxamide] | 40.9
10 | C[C@@H]1C(=O)NCCN1C(=O)N[C@H](c1ccc(F)c(Cl)c1)C1CCC(C(F)(F)F)CC1 (single isomer, unassigned) [Example 5B, (2R)-N-((S or R)-(3-chloro-4-fluoro-phenyl)(trans-4-(tri-fluoromethyl)cyclo-hexyl)methyl)-2-methyl-3-oxo-piperazine-1-carboxamide] | 4.2
11 | C[C@@H]1C(=O)NCCN1C(=O)NC(c1cc(F)c(F)c(F)c1)[C@H]1CC[C@H](C(F)(F)F)CC1 (single isomer, unassigned) [Example 6A, (R)-2-methyl-3-oxo-N-((R or S)-(trans-4-(trifluoromethyl)cyclo-hexyl)(3,4,5-tri-fluorophenyl)methyl) piperazine-1-carboxamide] | 232
12 | C[C@@H]1C(=O)NCCN1C(=O)NC(c1cc(F)c(F)c(F)c1)[C@H]1CC[C@H](C(F)(F)F)CC1 (single isomer, unassigned) [Example 6B, (R)-2-methyl-3-oxo-N-((S or R)-(trans-4-(trifluoromethyl)cyclo-hexyl)(3,4,5-tri-fluorophenyl)methyl) piperazine-1-carboxamide] | 35.4
13 | C[C@@H]1C(=O)NCCN1C(=O)NC(c1ccc(F)c(Cl)c1)[C@@H]1C[C@@H]2[C@H](C1)C2(F)F (single isomer, unassigned) [Example 7A, (2R)-N-((R or S)-(3-chloro-4-fluoro-phenyl)((1R,3s,5S)-6,6-difluoro-bicyclo[3.1.0]hexan-3-yl)methyl)-2-methyl-3-oxo-piperazine-1-carboxamide] | 112
14 | C[C@@H]1C(=O)NCCN1C(=O)NC(c1ccc(F)c(Cl)c1)[C@@H]1C[C@@H]2[C@H](C1)C2(F)F (single isomer, unassigned) [Example 7B, (2R)-N-((S or R)-(3-chloro-4-fluoro-phenyl)((1R,3s,5S)-6,6-difluoro-bicyclo[3.1.0]hexan-3-yl)methyl)-2-methyl-3-oxo-piperazine-1-carboxamide] | 11.7
15 | C[C@@H]1C(=O)NCCN1C(=O)NC(c1ccc(F)c(F)c1)[C@H]1CC[C@H](C(F)(F)F)CC1 (single isomer, unassigned) [Example 8A, (2R)-N-((R or S)-(3,4-difluoro-phenyl)(trans-4-(trifluoromethyl)cyclo-hexyl)methyl)-2-methyl-3-oxo-piperazine-1-carboxamide] | 244
16 | C[C@@H]1C(=O)NCCN1C(=O)NC(c1ccc(F)c(F)c1)[C@H]1CC[C@H](C(F)(F)F)CC1 (single isomer, unassigned) [Example 8B, (2R)-N-((S or R)-(3,4-difluoro-phenyl)(trans-4-(trifluoromethyl)cyclo-hexyl)methyl)-2-methyl-3-oxo-piperazine-1-carboxamide] | 13.2
17 | C[C@@H]1C(=O)NCCN1C(=O)NC(c1ccc(F)c(Cl)c1F)[C@H]1CC[C@H](C(F)(F)F)CC1 (single isomer, unassigned) [Example 9A, (2R)-N-((R or S)-(3-chloro-2,4-difluoro-phenyl)(trans-4-(trifluoromethyl)cyclo-hexyl)methyl)-2-methyl-3-oxo-piperazine-1-carboxamide] | 46.8
18 | C[C@@H]1C(=O)NCCN1C(=O)NC(c1ccc(F)c(Cl)c1F)[C@H]1CC[C@H](C(F)(F)F)CC1 (single isomer, unassigned) [Example 9B, (2R)-N-((S or R)-(3-chloro-2,4-difluoro-phenyl)(trans-4-(trifluoromethyl)cyclo-hexyl)methyl)-2-methyl-3-oxo-piperazine-1-carboxamide] | 0.8
19 | O=C1CN(C(=O)NC(c2ccc(F)c(Cl)c2F)[C@H]2CC[C@H](C(F)(F)F)CC2)CCN1 (single isomer, unassigned) [Example 10A, N-((R or S)-(3-chloro-2,4-difluoro-phenyl)(trans-4-(trifluoromethyl)cyclo-hexyl)methyl)-3-oxopiperazine-1-carboxamide] | 311
20 | O=C1CN(C(=O)NC(c2ccc(F)c(Cl)c2F)[C@H]2CC[C@H](C(F)(F)F)CC2)CCN1 (single isomer, unassigned) [Example 10B, N-((S or R)-(3-chloro-2,4-di-fluorophenyl)(trans-4-(trifluoromethyl)-cyclohexyl)methyl)-3-oxopiperazine-1-carboxamide] | 3.87
